# Experimental data reported in patent publication US20130158112A1, “COMPOSITIONS AND METHODS FOR INHIBITING BETA AMYLOID SECRETION” (priority 2011, published 2013).
# Entries after “also recorded” stand apart in the source; their conditions may differ.
# Experiments:
# α-secretase = assay: α-Secretase activity, compound added directly to cell lysates; format: biochemical, human; conditions: added to lysates rather than live cells
# Protocol: H4βAPP695 wt were treated with vehicle or 1 for 24 h, washed with ice cold PBS, and lysed in extraction buffer provided with the α-secretase assay kit (R&D Systems) for 10 min on ice and centrifuged at 10000 g for 1 min to remove nuclei. Protein content of the supernatant was determined by the BCA assay, and 50 μg of lysate protein were added to wells of a 96-well assay plate and the volume was adjusted to 100 μL using the lysis buffer. 100 μL of reaction buffer and 10 μL of the fluorogenic substrate were added, and the plates were incubated at 37° C. in the dark with gentle agitation for 2 h. Activity was detected in a fluorescence plate reader using an excitation of 355 nm and an emission of 510 nm after subtraction of fluorescence in the absence of cell lysate.
# We measured the activity of α-secretase using a fluorogenic peptide substrate in lysates of H4βAPP695 wt cells. […] However, addition of compound 1 directly to the cell lysates, rather than to the live cells, had no effect on α-secretase activity (data not shown), implying an indirect cellular activation of this pathway rather than direct activation of the α-secretase protease by compound 1.
# APP = assay: Western blot of APP processing products (sAPPα, sAPPβ, holoAPP, αCTF) in H4βAPP695 wt cells; format: cell-based, human; conditions: 10 μM, 24 h
# Protocol: The alternate processing of holoAPP by either the β-secretase (a precursor to Aβ production) or α-secretase (which clips in the middle of the Aβ region) is shown in FIG. 2A. Compound 1 induced decrease in total Aβ secretion may be due to its effect on APP processing or due to decreased production of its precursor APP. To probe its mechanism, H4βAPP695 wt cells were treated with 10 μM 1 for 24 h. Using Western blot assays, we measured secreted APPα (sAPPα) and APPβ (sAPPβ) in the conditioned media, and full-length holo-APP and the 83 residue long α-C-terminal fragment (α-CTF) in cell lysate. […] Thus, 1 appears to decrease Aβ secretion by activating the α-secretase pathway, a favorable pathway as the large secreted sAPPα protein is reported to have neurotrophic and neuroprotective activities.
structure (smiles),measurement,setting,value
O=C(NCCSCc1cccc(Cl)c1)c1c(Cl)cccc1Cl [Compound 1],α-secretase activity on direct addition to cell lysates,α-secretase,no effect
same,cellular full length (holo) APP level,APP,without altering holoAPP levels
same,increase of cellular α-CTF levels,APP,over 2 fold
same,increase of sAPPα levels,APP,over 3 fold
same,sAPPα level,APP,caused an increase; also recorded: increased
same,sAPPβ level,APP,without altering
same,αCTF level,APP,caused an increase; also recorded: increased
